Results published in patent US7041461B2 (H. Lundbeck A/S, priority 1998, dated 2006).
pEC50: −log10 of the molar value.

What was measured:
Assay type in all cases: cell-based
NPFF2 (hNPFF2) = target: T1, NPFF2 (hNPFF2) (Homo sapiens, UniProt Q9Y5X5); assay: Voltage-clamp electrophysiology in Xenopus oocytes expressing NPFF2 (NPFF-like) and chimeric Gαq/z; details: 1 μM; oocytes with NPFF2 (NPFF-like) mRNA and Gαq/z; −80 mV
T1 construct: BO89, was determined to be a full length clone with no point mutations; expressed in transfected cells; host or cells: Xenopus laevis oocytes injected with synthetic mRNA
Description: Electrophysiological responses in voltage-clamped oocytes expressing NPFF2 mRNA. […] Oocytes were clamped at a holding potential of −80 mV.
For expression of NPFF2, mRNA transcripts were generated as described for NPFF1, using PCR products from ligation reactions or linearized DNA from B089 as DNA templates. Oocytes were injected with 5–50 ng NPFF2 mRNA and incubated as previously described.
(§1) Oocytes were harvested from Xenopus laevis and injected with mRNA transcripts as previously described (Quick and Lester, 1994; Smith et al., 1997). […] Three to eight hours prior to recording, oocytes were injected with 500 pg Gαq/z mRNA in order to observe coupling to Ca^++ activated Cl^− currents. Dual electrode voltage clamp (Axon Instruments Inc.) was performed using 3 M KCl-filled glass microelectrodes having resistances of 1–2 Mohm. Unless otherwise specified, oocytes were voltage clamped at a holding potential of −80 mV. During recordings, oocytes were bathed in continuously flowing (1–3 ml/min) medium containing 96 mM NaCl, 2 mM KCl, 1.8 mM CaCl2, 1 mM MgCl2, and 5 mM HEPES, pH 7.5 (ND96). Drugs were applied either by local perfusion from a […] glass capillary tube fixed at a distance of 0.5 mm from the oocyte, or by switching from a series of gravity fed perfusion lines.

SNORF2 (NPFF1) = target: T2, SNORF2 (NPFF1) (Rattus norvegicus, UniProt Q9EP86); assay: Voltage-clamp electrophysiology in Xenopus oocytes expressing SNORF2 (NPFF1) and chimeric Gαq/z; details: 1 μM; oocytes with SNORF2 and Gαq/z; holding potential −80 mV
T2 construct: from linearized plasmids or PCR products containing the complete coding region of the genes; expressed in transfected cells; host or cells: Xenopus laevis oocytes injected with synthetic RNA
Description: as §1
Heterologous expression of GPCRs in Xenopus oocytes has been widely used to determine the identity of signaling pathways activated by agonist stimulation (Gundersen et al., 1983; Takahashi et al., 1987). Activation of the phospholipase C (PLC) pathway is assayed by applying test compound in ND96 solution to oocytes previously injected with mRNA for the mammalian receptor and observing inward currents at a holding potential of −80 mV. The appearance of currents that reverse at −25 mV and display other properties of the Ca^++-activated Cl^− (chloride) channel is indicative of mammalian receptor-activation of PLC and release of IP3 and intracellular Ca^++.
Control oocytes receiving only G-protein synthetic RNA were unresponsive to these peptides. […] Similarly, SNORF2-like was renamed NPFF-like.

NPFF1 (SN2) = target: T3, NPFF1 (SN2) (Rattus norvegicus, UniProt Q9EP86); assay: Microphysiometric measurement of extracellular acidification rate in transiently transfected CHO cells; details: CHO cells transfected with NPFF1 alone; read-out: EC50, increase in extracellular acidification rate
T3 construct: expressed in transfected cells; host or cells: CHO (CHO-K1) cells, transient
Description: Microphysiometric response of CHO cells transiently transfected with either NPFF1 (SN2) alone or NPFF1 accompanied by Gq/Gz. […] In both FIGS. 17A and 17B control cells mock transfected with empty vector produced little if any response to drug even at the highest concentrations used. Responses are reported as percentage increase in the acidification rate as observed just prior to drug challenge (immediate prior basal rate).
General guidelines for transient receptor expression, cell preparation and microphysiometric recording are described elsewhere (Salon, J. A. and Owicki, J. A., 1996). Receptors and/or control vectors are transiently expressed in CHO-K1 cells, by liposome mediated transfection according to the manufacturers recommendations (Lipof ectAMINE, GibcoBRL, Gaithersburg, Md.), and maintained in Ham's F-12 complete (10% serum). […]
A standard recording protocol specifies a 100 μl/min flow rate, with a 2 min total pump cycle which includes a 30 sec flow interrruption during which the acidification rate measurement is taken. […] Ligand samples are then washed out and the acidification rates reported are expressed as a percentage increase of the peak response over the baseline rate observed just prior to challenge. […]

T2 sequence (Q9EP86 whole entry): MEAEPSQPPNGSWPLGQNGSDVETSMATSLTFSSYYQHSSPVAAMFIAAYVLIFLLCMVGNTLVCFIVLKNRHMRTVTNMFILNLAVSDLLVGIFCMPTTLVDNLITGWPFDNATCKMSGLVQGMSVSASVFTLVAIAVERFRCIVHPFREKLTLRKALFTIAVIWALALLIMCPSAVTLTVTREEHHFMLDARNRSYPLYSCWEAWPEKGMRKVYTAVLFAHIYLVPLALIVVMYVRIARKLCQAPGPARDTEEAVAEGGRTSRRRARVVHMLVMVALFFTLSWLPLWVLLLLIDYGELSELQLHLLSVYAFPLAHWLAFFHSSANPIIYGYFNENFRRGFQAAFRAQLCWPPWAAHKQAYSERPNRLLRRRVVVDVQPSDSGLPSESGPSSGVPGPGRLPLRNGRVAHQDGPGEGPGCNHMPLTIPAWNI
T3 sequence (Q9EP86 whole entry): as above
T1 sequence (Q9Y5X5 103-522): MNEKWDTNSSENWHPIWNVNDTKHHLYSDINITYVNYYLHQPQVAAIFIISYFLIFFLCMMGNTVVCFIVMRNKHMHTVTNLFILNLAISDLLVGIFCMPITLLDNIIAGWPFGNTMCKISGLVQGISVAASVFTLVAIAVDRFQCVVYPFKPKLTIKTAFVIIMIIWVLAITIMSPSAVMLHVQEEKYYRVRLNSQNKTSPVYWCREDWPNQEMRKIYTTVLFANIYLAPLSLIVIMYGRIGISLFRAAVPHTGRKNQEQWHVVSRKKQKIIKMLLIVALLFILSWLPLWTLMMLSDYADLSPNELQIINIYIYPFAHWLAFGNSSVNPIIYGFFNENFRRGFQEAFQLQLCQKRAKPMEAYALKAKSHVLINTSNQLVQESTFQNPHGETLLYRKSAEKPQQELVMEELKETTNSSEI

For H-AGEGLSSPFWSLAAPQRF-NH2 [A18Fa], the inward current response (NPFF2 (hNPFF2)) was “activated similar inward currents”, the inward current response (SNORF2 (NPFF1)) was “robust inward currents” and the pEC50 (NPFF1 (SN2)) was 6.82.
